Experimental data reported in publication PMC6917776, “Discovery of a chemical probe for PRDM9” (Nature Communications, 2019).
Like-named read-outs stand apart in the source and are kept apart here.

Test: CelltiterGlo viability cell assay
Format: cell-based
Details: human; for viability at 3 day, 9.5 µM / viability at 3 day, 30 µM / viability at 6 day, 0.01 µM / viability at 6 day, 0.03 µM / viability at 6 day, 0.1 µM: SKMM2 cells (multiple myeloma line); for viability at 3 day, 0.01 µM / viability at 3 day, 0.03 µM: SKMM2 cells
Summary of the method: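 Cells seeded at line-specific densities (e.g. 10000/well for MDA-MB-436) were treated with compound at 0.01–30 μM, and viability was read by CellTiter-Glo luminescence on day 3 or 6. Data are normalized to DMSO control, n=3 biological replicates.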

[1] = RPMI-8226 multiple myeloma cells, 8226, 3 day, read-out: viability Replicate 1
[2] = RPMI-8226 multiple myeloma cells, 8226, 3 day, read-out: viability Replicate 2
[3] = RPMI-8226 multiple myeloma cells, 8226, 3 day, read-out: viability Replicate 3
[4] = RPMI-8226 multiple myeloma cells, 8226, 3 day, read-out: viability Average
[5] = RPMI-8226 multiple myeloma cells, 8226, 6 day, read-out: viability Average
[6] = RPMI-8226 multiple myeloma cells, 8226, 6 day, read-out: viability Replicate 1
[7] = RPMI-8226 multiple myeloma cells, 8226, 6 day, read-out: viability Replicate 2
[8] = RPMI-8226 multiple myeloma cells, 8226, 6 day, read-out: viability Replicate 3
[9] = SKMM2, 3 day, read-out: viability Average
[10] = SKMM2, 3 day, read-out: viability Replicate 1
[11] = SKMM2, 3 day, read-out: viability Replicate 2
[12] = SKMM2, 3 day, read-out: viability Replicate 3
[13] = SKMM2, 6 day, read-out: viability Average
[14] = SKMM2, 6 day, read-out: viability Replicate 1
[15] = SKMM2, 6 day, read-out: viability Replicate 2
[16] = SKMM2, 6 day, read-out: viability Replicate 3
[17] = SKMM2 multiple myeloma cells, SKMM2, 3 day, read-out: viability Average
[18] = SKMM2 multiple myeloma cells, SKMM2, 3 day, read-out: viability Replicate 1
[19] = SKMM2 multiple myeloma cells, SKMM2, 3 day, read-out: viability Replicate 2
[20] = SKMM2 multiple myeloma cells, SKMM2, 3 day, read-out: viability Replicate 3
[21] = SKMM2 multiple myeloma cells, SKMM2, 6 day, read-out: viability Average
[22] = SKMM2 multiple myeloma cells, SKMM2, 6 day, read-out: viability Replicate 1
[23] = SKMM2 multiple myeloma cells, SKMM2, 6 day, read-out: viability Replicate 2
[24] = SKMM2 multiple myeloma cells, SKMM2, 6 day, read-out: viability Replicate 3

Work on `COc1cc(OC)cc(-c2noc(N3CCN(C)C4(CCN(c5ccnc(C)c5)CC4)C3)n2)c1` [MRK-740] yielded a viability at 3 day, 0.3 µM [1] of 101%, a viability at 3 day, 0.3 µM [2] of 101% and a viability at 3 day, 0.3 µM [3] of 104%. It also gave a viability at 3 day, 1 µM [4] of 104%, a viability at 3 day, 1 µM [1] of 104% and a viability at 3 day, 1 µM [2] of 102%. It also gave a viability at 3 day, 1 µM [3] of 105%, a viability at 3 day, 3 µM [4] of 106% and a viability at 3 day, 3 µM [1] of 106%. For the same compound, the viability at 3 day, 3 µM [2] was 105%, the viability at 3 day, 3 µM [3] was 107% and the viability at 6 day, 0.3 µM [5] was 98.9%. It also gave a viability at 6 day, 0.3 µM [6] of 97.6%, a viability at 6 day, 0.3 µM [7] of 98.6% and a viability at 6 day, 0.3 µM [8] of 101%. For the same compound, the viability at 6 day, 1 µM [5] was 97.3%, the viability at 6 day, 1 µM [6] was 95% and the viability at 6 day, 1 µM [7] was 99.7%. The viability at 6 day, 1 µM [8] was 97.2%, the viability at 6 day, 3 µM [5] was 92.6% and the viability at 6 day, 3 µM [6] was 89.2%. It also gave a viability at 6 day, 3 µM [7] of 96.8%, a viability at 6 day, 3 µM [8] of 91.7% and a viability at 6 day, 9.5 µM [5] of 82.7%. For the same compound, the viability at 6 day, 9.5 µM [6] was 77%, the viability at 6 day, 9.5 µM [7] was 85.6% and the viability at 6 day, 9.5 µM [8] was 85.5%. For the same compound, the viability at 6 day, 30 µM [5] was 70.7%, the viability at 6 day, 30 µM [6] was 82% and the viability at 6 day, 30 µM [7] was 56.4%. The viability at 6 day, 30 µM [8] was 73.5%, the viability at 3 day, 9.5 µM [9] was 93.2% and the viability at 3 day, 9.5 µM [10] was 95.7%. The viability at 3 day, 9.5 µM [11] was 89.2%, the viability at 3 day, 9.5 µM [12] was 94.7% and the viability at 3 day, 30 µM [9] was 67%. It also gave a viability at 3 day, 30 µM [10] of 70.4%, a viability at 3 day, 30 µM [11] of 59% and a viability at 3 day, 30 µM [12] of 71.7%. The viability at 6 day, 0.01 µM [13] was 99.7%, the viability at 6 day, 0.01 µM [14] was 96.8% and the viability at 6 day, 0.01 µM [15] was 103%. It also gave a viability at 6 day, 0.01 µM [16] of 99.2%, a viability at 6 day, 0.03 µM [13] of 98.1% and a viability at 6 day, 0.03 µM [14] of 90.3%. The viability at 6 day, 0.03 µM [15] was 105%, the viability at 6 day, 0.03 µM [16] was 98.8% and the viability at 6 day, 0.1 µM [13] was 96.7%. For the same compound, the viability at 6 day, 0.1 µM [14] was 86.5%, the viability at 6 day, 0.1 µM [15] was 107% and the viability at 6 day, 0.1 µM [16] was 96.8%. For the same compound, the viability at 3 day, 0.01 µM [9] was 101%, the viability at 3 day, 0.01 µM [10] was 101% and the viability at 3 day, 0.01 µM [11] was 99.6%. For the same compound, the viability at 3 day, 0.01 µM [12] was 102%, the viability at 3 day, 0.03 µM [9] was 101% and the viability at 3 day, 0.03 µM [10] was 99.8%. It also gave a viability at 3 day, 0.03 µM [11] of 99.2%, a viability at 3 day, 0.03 µM [12] of 103% and a viability at 3 day, 0.1 µM [17] of 103%. The viability at 3 day, 0.1 µM [18] was 102%, the viability at 3 day, 0.1 µM [19] was 100% and the viability at 3 day, 0.1 µM [20] was 105%. It also gave a viability at 3 day, 0.3 µM [17] of 101%, a viability at 3 day, 0.3 µM [18] of 101% and a viability at 3 day, 0.3 µM [19] of 98.7%. The viability at 3 day, 0.3 µM [20] was 103%, the viability at 3 day, 1 µM [17] was 101% and the viability at 3 day, 1 µM [18] was 99.9%. For the same compound, the viability at 3 day, 1 µM [19] was 99.6%, the viability at 3 day, 1 µM [20] was 104% and the viability at 3 day, 3 µM [17] was 99.8%. It also gave a viability at 3 day, 3 µM [18] of 97.6%, a viability at 3 day, 3 µM [19] of 98.3% and a viability at 3 day, 3 µM [20] of 104%. It also gave a viability at 6 day, 0.3 µM [21] of 98.1%, a viability at 6 day, 0.3 µM [22] of 88.2% and a viability at 6 day, 0.3 µM [23] of 106%. For the same compound, the viability at 6 day, 0.3 µM [24] was 100%, the viability at 6 day, 1 µM [21] was 96.5% and the viability at 6 day, 1 µM [22] was 88%. It also gave a viability at 6 day, 1 µM [23] of 105%, a viability at 6 day, 1 µM [24] of 96.3% and a viability at 6 day, 3 µM [21] of 96.8%. The viability at 6 day, 3 µM [22] was 85.2%, the viability at 6 day, 3 µM [23] was 105% and the viability at 6 day, 3 µM [24] was 100%. For the same compound, the viability at 6 day, 9.5 µM [21] was 94.5%, the viability at 6 day, 9.5 µM [22] was 83.8% and the viability at 6 day, 9.5 µM [23] was 102%. The viability at 6 day, 9.5 µM [24] was 97.7%, the viability at 6 day, 30 µM [21] was 71.5% and the viability at 6 day, 30 µM [22] was 71.4%. It also gave a viability at 6 day, 30 µM [23] of 66% and a viability at 6 day, 30 µM [24] of 77.2%.
